# According to ChEMBL document CHEMBL1201862, “PubChem BioAssay data set” (2004):
#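 Tested at 5 concentrations; 48 h exposure; 96-well plates; endpoints linearly interpolated, else capped at highest concentration. GI50 marks 50% less growth.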 Active and inactive are the calls of the source. No stated cut-off is given here; in the data, active = GI50 up to about 1.1 µM and inactive = higher.
# Columns and labels:
# Test in all cases: growth of human tumour cells (NCI), 48 h
# 786-0 = test system: 786-0
# A498 = test system: A498
# A549 = test system: A549
# ACHN = test system: ACHN
# BT-549 = test system: BT-549
# CAKI-1 = test system: CAKI-1
# CCRF-CEM = test system: CCRF-CEM
# COLO 205 = test system: COLO 205
# DU-145 = test system: DU-145
# EKVX = test system: EKVX
# HCC 2998 = test system: HCC 2998
# HCT-116 = test system: HCT-116
# HCT-15 = test system: HCT-15
# HL-60 = test system: HL-60
# HOP-62 = test system: HOP-62
# HOP-92 = test system: HOP-92
# HT-29 = test system: HT-29
# Hs-578T = test system: Hs-578T
# IGROV-1 = test system: IGROV-1
# K562 = test system: K562
# KM12 = test system: KM12
# LOX IMVI = test system: LOX IMVI
# M14 = test system: M14
# MCF7 = test system: MCF7
# MDA-MB-231 = test system: MDA-MB-231
# MDA-MB-435 = test system: MDA-MB-435
# MDA-N = test system: MDA-N
# Malme-3M = test system: Malme-3M
# NCI-H226 = test system: NCI-H226
# NCI-H23 = test system: NCI-H23
# NCI-H460 = test system: NCI-H460
# NCI-H522 = test system: NCI-H522
# OVCAR-3 = test system: OVCAR-3
# OVCAR-4 = test system: OVCAR-4
# OVCAR-5 = test system: OVCAR-5
# OVCAR-8 = test system: OVCAR-8
# PC-3 = test system: PC-3
# RPMI-8226 = test system: RPMI-8226
# RXF 393 = test system: RXF 393
# SF-268 = test system: SF-268
# SF-295 = test system: SF-295
# SF-539 = test system: SF-539
# SK-MEL-28 = test system: SK-MEL-28
# SK-MEL-2 = test system: SK-MEL-2
# SK-MEL-5 = test system: SK-MEL-5
# SK-OV-3 = test system: SK-OV-3
# SN12C = test system: SN12C
# SNB-19 = test system: SNB-19
# SNB-75 = test system: SNB-75
# SR = test system: SR
# SW-620 = test system: SW-620
# T47D = test system: T47D
# TK-10 = test system: TK-10
# U-251 = test system: U-251
# UACC-257 = test system: UACC-257
# UACC-62 = test system: UACC-62
# UO-31 = test system: UO-31
smiles,measurement,setting,value
C=C(C)[C@@H]1CC[C@@H]2C(=CC[C@]3(C)C([C@H](C)CC/C=C(/C)C(=O)O)CC[C@@]23C)[C@@]1(C)CCC(=O)O (some centres not stated),GI50,786-0,21.8 µM (inactive)
same,GI50,A498,33.3 µM (inactive)
same,GI50,A549,36.8 µM (inactive)
same,GI50,ACHN,19 µM (inactive)
same,GI50,BT-549,21.6 µM (inactive)
same,GI50,CAKI-1,23.8 µM (inactive)
same,GI50,CCRF-CEM,21.9 µM (inactive)
same,GI50,COLO 205,22.6 µM (inactive)
same,GI50,DU-145,24.2 µM (inactive)
same,GI50,EKVX,36.3 µM (inactive)
same,GI50,HCC 2998,18.8 µM (inactive)
same,GI50,HCT-116,22.3 µM (inactive)
same,GI50,HCT-15,21.3 µM
same,GI50,HL-60,26.8 µM (inactive)
same,GI50,HOP-62,52.8 µM (inactive)
same,GI50,HOP-92,19.2 µM (inactive)
same,GI50,HT-29,21.7 µM (inactive)
same,GI50,Hs-578T,33.3 µM (inactive)
same,GI50,IGROV-1,28.2 µM (inactive)
same,GI50,K562,33 µM (inactive)
same,GI50,KM12,23.4 µM (inactive)
same,GI50,LOX IMVI,19.2 µM (inactive)
same,GI50,M14,29.5 µM (inactive)
same,GI50,MCF7,39.6 µM (inactive)
same,GI50,MDA-MB-231,25.2 µM (inactive)
same,GI50,MDA-MB-435,29.2 µM (inactive)
same,GI50,MDA-N,28.3 µM (inactive)
same,GI50,Malme-3M,25.5 µM (inactive)
same,GI50,NCI-H226,21.3 µM (inactive)
same,GI50,NCI-H23,24 µM (inactive)
same,GI50,NCI-H460,20.4 µM (inactive)
same,GI50,NCI-H522,22.7 µM (inactive)
same,GI50,OVCAR-3,19.9 µM (inactive)
same,GI50,OVCAR-4,36.6 µM (inactive)
same,GI50,OVCAR-5,30.5 µM (inactive)
same,GI50,OVCAR-8,34.4 µM (inactive)
same,GI50,PC-3,24.9 µM (inactive)
same,GI50,RPMI-8226,22.9 µM (inactive)
same,GI50,RXF 393,19.4 µM (inactive)
same,GI50,SF-268,37.7 µM (inactive)
same,GI50,SF-295,30.3 µM (inactive)
same,GI50,SF-539,30.4 µM (inactive)
same,GI50,SK-MEL-28,27.9 µM (inactive)
same,GI50,SK-MEL-2,20.2 µM (inactive)
same,GI50,SK-MEL-5,16.9 µM (inactive)
same,GI50,SK-OV-3,37.7 µM (inactive)
same,GI50,SN12C,33.4 µM (inactive)
same,GI50,SNB-19,34 µM (inactive)
same,GI50,SNB-75,34.4 µM (inactive)
same,GI50,SR,21.3 µM (inactive)
same,GI50,SW-620,29 µM (inactive)
same,GI50,T47D,45.8 µM (inactive)
same,GI50,TK-10,36.6 µM (inactive)
same,GI50,U-251,24.5 µM (inactive)
same,GI50,UACC-257,23.8 µM (inactive)
same,GI50,UACC-62,20.4 µM (inactive)
same,GI50,UO-31,16.7 µM (inactive)
